Where no end group is shown, it is not given here.
Experiments:
Type in all cases: cell-based
[1] = molecular target: FGFR1 (Homo sapiens, UniProt P11362); test: Western blot of bFGF-induced FGFR1 activation in HEK-293 cells; set-up: endogenous in cells; host or cells: HEK-293; conditions: P48 pretreatment 10 min, bFGF 15 min
Experimental: (§1) Human embryonic kidney cells HEK-293, fibroblasts MEF-WT and Balb/c 3T3 were inoculated into 6-well plates, respectively. After growing adherently overnight, the cells were pretreated with P48 for 10 min or with AZD4547/PD173074/SSR for 2 h, and incubated with bFGF for 15 min. […] The experimental procedure was as follows: MEF-WT and MEFKO (FGFR1-FGFR2-FRS2a) cells (1×10^6 cells/ml) were inoculated in a 35 mm petri dish. After being adhered to the wall of petri dish overnight, the cells were washed with PBS; FITC-conjugated P48 (1, 10, 100 and 1000 nM) was added, and the cells were incubated in an incubator for 30 min. The cells were immobilized with 1% paraformaldehyde in the dark and washed with PBS. An expression level of the FITC was measured at a fluorescence channel 1 (FL-1) (530 nm), with an excitation wavelength of 488 nm. Data analysis was conducted using CellQuest software (Becton Dickinson).

[2] = tested on: SGC-7901 cells; test: MTT viability, SGC-7901 cells; conditions: 48 h with bFGF
Experimental: (§2) In vitro anti-tumor activity of a short peptide compound P48 Hela229 (1500 cells/100 μl), B16-F10 (1000 cells/100 μl), NCI-H460 (4000 cells/100 μl) and SGC7901 (4000 cells/100 μl) cells were inoculated in 96-well plates. After incubated overnight adherently, the original medium was replaced with a Dulbecco's modified eagle medium (DMEM) containing 0.1% fetal bovine serum (FBS) or a Roswell Park Memorial Institute 1640 (RPMI-1640) medium containing 0.1% FBS, and culture was continued for 24 h. A mixture of P48 and bFGF, or bFGF alone were added into corresponding wells, and incubated for 48 h; an MTT solution (5 mg/mL) prepared by PBS was added to the cells in each well at 37° C., and treated for 4 h. The MTT was removed by aspiration, 150 μL of DMSO was added to each well, shaking was conducted for 10 min, and an optical density (OD) value was quantified with a microplate reader (SpectraMax M2/M2e, Molecular Devices, Sunnyvale, USA) at a wavelength of 490 nm. The percentage of drug growth inhibition rate was calculated by comparing with the bFGF group. […] The experimental procedure was as follows: 10% FBS-containing medium (500 μl) was added to a lower surface of a transwell insertion chamber, the cells together with the drug were inoculated into an upper chamber, and cultured with a serum-free medium (200 μl). […]

[3] = tested on: FGFR1; test: Flow cytometry binding of FITC-conjugated P48 to MEF-WT and FGFR1-FGFR2-FRS2a knock-out MEF cells; conditions: FITC-conjugated P48 1, 10, 100, 1000 nM, 30 min
Experimental: as §1

[4] = tested on: NCI-H460 cells; test: MTT viability, NCI-H460 cells; conditions: 48 h with bFGF
Experimental: as §2

Sequence of FGFR1 (Homo sapiens, UniProt P11362) (P11362 22-822): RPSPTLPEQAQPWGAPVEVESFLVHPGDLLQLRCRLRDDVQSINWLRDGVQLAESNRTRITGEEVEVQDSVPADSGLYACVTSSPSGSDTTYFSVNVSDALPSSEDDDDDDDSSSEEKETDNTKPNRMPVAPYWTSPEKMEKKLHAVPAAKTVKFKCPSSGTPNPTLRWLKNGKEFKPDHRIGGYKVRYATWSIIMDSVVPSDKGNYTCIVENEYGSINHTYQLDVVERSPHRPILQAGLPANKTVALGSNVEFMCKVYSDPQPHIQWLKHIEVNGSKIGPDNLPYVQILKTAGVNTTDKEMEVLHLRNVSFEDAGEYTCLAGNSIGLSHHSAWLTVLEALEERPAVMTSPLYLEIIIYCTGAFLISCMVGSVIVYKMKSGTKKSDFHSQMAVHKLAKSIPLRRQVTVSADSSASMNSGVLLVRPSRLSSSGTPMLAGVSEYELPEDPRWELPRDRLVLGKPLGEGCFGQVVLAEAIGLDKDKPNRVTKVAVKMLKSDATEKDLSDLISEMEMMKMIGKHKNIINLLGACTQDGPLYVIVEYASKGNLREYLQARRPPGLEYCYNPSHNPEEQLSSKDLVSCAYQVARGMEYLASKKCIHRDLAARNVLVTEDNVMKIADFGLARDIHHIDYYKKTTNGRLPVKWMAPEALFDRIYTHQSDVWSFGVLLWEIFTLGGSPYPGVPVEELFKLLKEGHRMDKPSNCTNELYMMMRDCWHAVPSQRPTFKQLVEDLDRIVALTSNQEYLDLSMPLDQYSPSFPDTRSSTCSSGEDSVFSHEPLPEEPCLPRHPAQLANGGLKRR

In the case of “SPPRYPGGGS-NH2 [P48, Ser-Pro-Pro-Arg-Tyr-Pro-Gly-Gly-Gly-Ser-NH2]”, the “inhibition of FGFR1 activation induced by bFGF” value [1] is reported as “can inhibit activation of FGFR1 induced by bFGF in a concentration-dependent manner”, the “inhibition of cancer cell viability” value [2] is reported as “can significantly inhibit the viability of cancer cells” and the “binding to wild-type versus FGFR1-FGFR2-FRS2a knock-out MEF cells” value [3] is reported as “only has a binding effect on the wild-type MEF cells”. The “inhibition of cancer cell viability” value [4] was “can significantly inhibit the viability of cancer cells”.
